The values that follow come from patent US12251373B2, “Compounds and methods of treating retinal degeneration” (CASE WESTERN RESERVE UNIVERSITY, priority 2017, dated 2025).

Like-named read-outs stand apart in the source and are kept apart here.

Holding throughout (format): cell-based
One assay addresses T1, P23H opsin (Mus musculus, UniProt P15409, P23H).
T1 construct: expressed in transfected cells
Nature of the assay: Immunoblot of P23H opsin glycosylation in NIH3T3 cells. The arrangement: key to Improved glycosylation: n = no; y = yes. Particulars: P23H opsin. The protocol:
NIH3T3-(P23H-opsin/GFP) or NIH3T3-(WT-opsin/GFP) cells were seeded in a 48-well plate (Corning Costar) at 3.2×10^5 cells per well and incubated at 37° C. with 5% CO2 for 2 h. One hundred-μL of assay medium containing a compound at 5× its final concentration was added to each well. The plate was gently shaken for 5 s before further incubation at 37° C. with 5% CO2 for 24 h. The assay medium then was aspirated, and cells were lysed with 100 μL per well PBS containing 0.1% Triton X-100 and complete protease inhibitor cocktail (Roche, Basel, Switzerland) followed by sonication for 3 s. Protein concentrations were determined with the Bradford assay. For PNGase F catalyzed deglycosylation, 3 μL of PNGase F (1,500 U, NEB) was added to the cell lysate and the mixture was incubated at room temperature for 1 h before immunoblotting. For NIH3T3-(P23H-opsin/GFP) cells, 15 μg of total protein were loaded per well onto an SDS-polyacrylamide gel; whereas for NIH3T3-(WT-opsin/GFP) cells, 10 μg of total protein was loaded per well. Opsin protein was immunostained with 0.2 μg mL^−1 horseradish peroxidase-conjugated 1D4 anti-rhodopsin antibody. Band intensities were measured with ImageJ software (http://imagej.nih.gov/ij/; National the Institutes of Health, Bethesda, MD, USA) and normalized to a glyceraldehyde 3-phosphate dehydrogenase (GAPDH) loading control.

In a further assay the target is T2, mouse P23H opsin (Mus musculus, UniProt P15409, P23H).
T2 construct: expressed in transfected cells
Nature of the assay: Immunostain and image-based high-content analysis of P23H mutant opsin in NIH3T3 cells. Particulars: ratio of P23H rod opsin fluorescence on plasma membrane to whole cell; for EC50: read-out: Immunostaining HCS MEM-Total ratio EC50. The source says: Three NIH3T3 stable cell lines, NIH3T3-(WT-opsin/GFP), NIH3T3-(P23H-opsin/GFP), and NIH3T3-(GFP) were previously generated which stably express mouse WT opsin and GFP; P23H opsin and GFP; and only GFP, respectively. GFP is expressed separately from opsin in these cell lines. NIH3T3 cells were from ATCC. DNA constructs for generating these stable cell lines were confirmed by Sanger sequencing. Expression of GFP was confirmed by green fluorescence imaging, and expression of P23H and WT opsin were confirmed by immunoblots.
To characterize the effect of active compounds on the localization of P23H mutant opsin in mammalian cells, an image-based assay was used with cells immunostained for WT or P23H mutant opsin protein. Briefly, NIH3T3-(P23H-opsin/GFP) or NIH3T3-(WT-opsin/GFP) cells were seeded at 5,000 cells per well in a 384-well cell-carrier plate (PerkinElmer) and incubated at 37° C. with 5% CO2 for 2 h. Cells were treated with compounds as described for the β-Gal fragment complementation assay and incubated in assay medium for 24 h. The assay medium then was aspirated, and cells were fixed with 4% paraformaldehyde at 20 μL per well for 20 min at RT. Cells were immunostained in one of two ways: cell membranes were either permeabilized with 0.1% Triton X-100 for 15 min or left intact and then were incubated with 10% goat serum (Life Technologies). To detect opsin on the cell plasma membrane only, intact cells were immunostained with 20 μL per well of 20 μg mL^−1 B6-30 anti-rhodopsin antibody that recognizes the N-terminal epitope on the extracellular side of rhodopsin. To detect total opsin, cells were permeabilized with Triton X-100 and immunostained with 50 μg mL^−1 1D4 anti-rhodopsin antibody specific for the C-terminal epitope on the intracellular side of rhodopsin. Opsin immunostaining was visualized by incubating cells with 5 μg mL^−1 Cy3-conjugated goat anti-mouse IgG antibody. Three washes with phosphate-buffered saline (PBS: 10 mM Na2HPO4, 1.8 mM KH2PO4, pH 7.4, 137 mM NaCl, and 2.7 mM KCl) were performed between each step of incubation with antibody. In the last wash with PBS, DAPI was added to each well at 300 nM. Fluorescence images were obtained with the Operetta High Content Imaging System (PerkinElmer) using a 20× long objective. Five fields were taken of each well for cell images using three channels for fluorescence: GFP (100 ms), Cy3 (300 ms), and DAPI (50 ms). Images were analyzed with Acapella software from the Columbus data storage and analysis system (PerkinElmer). For cells immunostained with opsin on the non-permeabilized cell membrane only, an average of total fluorescence intensity of Cy3 per cell was used to quantify opsin in each well of the 384-well plate. For cells immunostained with opsin in permeabilized whole cells, an average ratio of Cy3 intensity on the cell plasma membrane (PM) to that of the entire cell (opsin ratio PM-to-total) was calculated for each well of a 384-well plate to quantify opsin transport to the plasma membrane. The plasma membrane was defined within ±5% of the cell border.

Another assay deals with mouse P23H opsin mutant (Mus musculus, UniProt P15409, P23H). Nature of the assay: β-Gal fragment complementation assay: rescue of P23H opsin transport from ER to plasma membrane, U2OS(PLC-EA/P23H-PK) cells. As to conditions: for Emax: U2OS, Table 1; for EC50: read-out: β-Gal fragment complementation assay Activity score (%) EC50. The source says:
U2OS(PLC-EA/P23H-PK) cells. A U2OS stable cell line was generated by DiscoveRx, Inc. (Fremont, CA, USA) for the β-Gal fragment complementation assay used in the small molecule HTS for rescue of P23H opsin transport. U2OS cells that continually express P23H-PK and PLC-EA fusion proteins were generated. Briefly, this small subunit of […] (PK fragment) was fused to the C-terminal of the mouse P23H opsin mutant, while the large EA fragment, a subunit of […], was fused with PLC, a plasma membrane anchored peptide. Both constructs were subcloned by DicoveRx, Inc. and transferred into U2OS cells by viral infections. Positive clones were selected under treatment with hygromycin and geneticin.
Briefly, U2OS(PLC-EA/P23H-PK) cells were suspended in assay medium at 3×10^5 cells mL^−1. The cell suspension was dispensed into 384-well plates (Greiner Bio-one, Monroe, NC, USA) at 20 μL per well, with a Multidrop dispenser (Thermo Scientific, Waltham, MA, USA). Plates with cells then were centrifuged at 200 g for 15 s before incubation at 37° C. with 5% CO2. Plates were removed 24 h later for treatment with tested compounds. A total of 248 plates containing 79,080 compounds from three small molecule libraries were paired with an equal number of assay plates with cultured cells. Due to a limited capacity, these plates were assayed in seven batches. An average of 56.3 nL of 10 mM compound in DMSO was dispensed into each well from column 3 to 22 of paired assay plates using a 50 nL 384-pintool system, such that the final concentration of each compound was 22.52 μM on average. […] Each assay plate was shaken for 5 s before further incubation at 37° C. with 5% CO2. […] Assay plates were incubated in the dark for 60-90 min, and luminescence was read from each assay plate with an Envision microplate reader (PerkinElmer) during a 0.1 s per well integration time. The mean and s.d. of readouts in column 2 of each plate were calculated as Mean0% and SD0%, whereas the average and s.d. of readouts in column 23 were calculated as Mean100% and SD100%. Equation 1: Activity scores (%)=(RLUcp−Mean0%)/(Mean100%−Mean0%)×100%, where RLUcp is the relative luminescence unit derived for cells treated with a compound. Equation 2: Z′-factor=1-3×(SD0%+SD100%)/(Mean100%−Mean0%); Equation 3: signal-to-background (S/B) ratio=Mean100%/Mean0%. Activities of all tested compounds were registered with their compound ID by GeneData Screener (Genedata, Basel, Switzerland) and Pipeline Pilot software (Accelrys, San Diego, CA, USA). Hits, cherry-picked from a separate stock dose-dependent activity test, were selected with an activity score cutoff at 20%. Activity of each hit was tested again with the β-Gal fragment complementation assay in a 10-dose series with each dose tested in triplicate. The 10 doses tested were 80, 40, 20, 10, 5, 2.5, 1.25, 0.625, 0.313, and 0.156 μM. Dose-dependent curves of each hit compound were fitted with GeneData and Origin software.
Detailed synthetic steps are described in FIG. 18. […] YC-002-YC-021 were purchased from commercial vendors including Enamine LLC (Monmouth Jct., NJ, USA), Matrix Scientific (Columbia, SC, USA) and Tokyo Chemical Industry Co., Ltd. (Portland, OR, USA). […] Activities of YC compounds were tested with the β-Gal fragment complementation assay, as described in a prior section. All YC compounds were tested at 10 doses, each in triplicate: 80, 40, 20, 10, 5, 2.5, 1.25, 0.625, 0.313, and 0.156 μM.

Setting [1] is: experimental maximum, read-out: β-Gal fragment complementation assay Activity score (%) Max (Exp).
The mark [2] stands for this setting: fitted maximum, read-out: β-Gal fragment complementation assay Activity score (%) Max (fit).

In the case of `O=C(NCC#CCN1CCCC1)c1cc(-c2ccccc2)on1` [Compound F6244-1415], the Improved glycosylation result at P23H opsin was “n”. The “Immunostaining HCS MEM-Total ratio Max (fit)” value on mouse P23H opsin was found to be 0.063. Also, the EC50 on mouse P23H opsin is 4.2 µM; at mouse P23H opsin mutant, 8.61 µM. In addition, the figures for the Emax at mouse P23H opsin mutant (setting [1]) and on mouse P23H opsin mutant (setting [2]) were 24.8% and 25.2%, respectively.
With `Cc1cc(OCC(=O)Nc2cc(N3CCOCC3)ncn2)cc(C)c1Cl` [Compound F6257-1860], the Improved glycosylation result at P23H opsin is given as “n”. Also, the “Immunostaining HCS MEM-Total ratio Max (fit)” value at mouse P23H opsin amounted to 0.022. In addition, the figures for the EC50 on mouse P23H opsin and at mouse P23H opsin mutant were 1.07 µM and 10.7 µM, respectively. Besides, the Emax at mouse P23H opsin mutant (setting [1]) was determined as 211%; on mouse P23H opsin mutant (setting [2]), 234%.
